Where “and” joins values, the source holds several entries; their conditions need not be identical. Equal entries are not always repeated.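 Dose response: 5 concentrations. Exposure: 48 h. Format: 96-well plates. Endpoint: linear interpolation; highest concentration if not reached. Here, GI50 denotes the concentration required for 50% inhibition of growth. TGI is the concentration that stops growth completely.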
Experiments:
Assay in all cases: NCI anticancer screen, dose series, 48 h
CCRF-CEM leukemia = system: CCRF-CEM leukemia
EKVX NSCLC = system: EKVX NSCLC
HCC-2998 colon = system: HCC-2998 colon
KM12 colon = system: KM12 colon
MDA-MB-435 = system: MDA-MB-435
SF-539 CNS = system: SF-539 CNS
SNB-75 CNS = system: SNB-75 CNS
SR leukemia = system: SR leukemia
SW-620 colon = system: SW-620 colon
T-47D breast = system: T-47D breast

Row | SMILES | GI50 (CCRF-CEM leukemia) [nM] | TGI (CCRF-CEM leukemia) | GI50 (EKVX NSCLC) [nM] | TGI (EKVX NSCLC) | GI50 (HCC-2998 colon) [nM] | TGI (HCC-2998 colon) | GI50 (KM12 colon) | TGI (KM12 colon) | GI50 (MDA-MB-435) | TGI (MDA-MB-435) | GI50 (SF-539 CNS) | TGI (SF-539 CNS) | GI50 (SNB-75 CNS) | TGI (SNB-75 CNS) | GI50 (SR leukemia) | TGI (SR leukemia) | GI50 (SW-620 colon) | TGI (SW-620 colon) | GI50 (T-47D breast) [nM] | TGI (T-47D breast)
1 | COC(=O)COc1ccccc1/C=C1\N=C(c2ccccc2)N(c2cc(C(F)(F)F)ccc2Cl)C1=O | 27600 | 74400 nM | > 100000 | > 100000 nM | 36300 | > 100000 nM | 41700 nM | > 100000 nM | 33100 nM | > 100000 nM | 42700 nM | > 100000 nM | 34400 nM | > 100000 nM | 24000 nM | 70500 nM | 38800 nM | > 100000 nM | 29100 | > 100000 nM
2 | N=C(N)C1CN(CCc2c[nH]c3ccccc23)C(=O)NC1=O (stereo unspecified) |  | > 100000 nM |  | > 100000 nM |  | > 100000 nM |  |  |  | > 100000 nM |  |  |  | > 100000 nM |  | > 100000 nM |  | > 100000 nM |  | > 100000 nM
3 | CCN(CC)CCC(CNc1ccnc2cc(Cl)ccc12)c1ccc(Cl)cc1 (stereo unspecified) | 1270 | 6290 nM | 3850 | 18800 nM | 642 | 2030 nM | 1790 nM | 4440 nM | 402 nM | 1650 nM | 1250 nM | 2770 nM | 1300 nM | 2640 nM | 311 nM | 1480 nM | 1480 nM | 3390 nM | 1920 | 4210 nM
4 | CN1CCN(C2CCN(C(=O)Nc3cc(Oc4ccc(NC(=O)C5(C(=O)Nc6ccc(F)cc6)CC5)c(F)c4)ccn3)CC2)CC1 | 1260 | > 5700 nM | > 1990 | > 8760 nM | > 2040 | > 10000 nM | 292 nM | > 2520 nM | 918 nM | > 3270 nM | 994 nM | > 2200 nM | 365 nM | > 1970 nM | 530 nM | 1770 nM | 1430 nM | > 10000 nM | 5560 | > 10000 nM
5 | N#Cc1c(NC(=O)NCc2ccccc2)sc2c1CCCCC2 | 357 | > 100000 nM | 461 | > 100000 nM | 1770 | > 28500 nM | 448 nM | > 100000 nM | 220 nM | 564 nM | 328 nM | 1870 nM | 261 nM | 4910 nM | 346 nM | > 100000 nM | 406 nM | > 100000 nM | 343 | > 100000 nM
6 | COc1cccc2c1C(=O)c1c(O)c3c(c(O)c1C2=O)C[C@@](O)(C(=O)CO)C[C@@H]3OC1CC(N)CC(C)O1 (stereo partly specified) | < 12.5 | 374 nM and 159 nM | 152 | 839 nM and 610 nM | 117 | 429 nM and 619 nM | 79.8 nM and 51.5 nM | 1310 nM and 1890 nM | 131 nM and 32.7 nM | 283 nM and 156 nM | 18.9 nM and 47.1 nM | 194 nM and 211 nM | 8.85 nM and 47 nM | 195 nM and 161 nM | 5.48 nM and 20 nM | 492 nM and 632 nM | 11.7 nM and 38.9 nM | 434 nM and 1360 nM | 67 | 1130 nM and 696 nM
7 | CSc1nc(=O)n(CCC#N)nc1SC |  |  |  | > 100000 nM |  | 31900 nM |  | > 100000 nM |  | > 100000 nM |  | > 100000 nM |  | > 100000 nM |  | > 100000 nM |  | 58300 nM |  | 62700 nM
8 | NC(=O)/C=C/C(=O)c1c(Cl)cccc1Cl |  |  |  |  | 1510 | 2880 nM | 1590 nM | 3020 nM | 1300 nM | 3480 nM | 1410 nM | 2710 nM | 1610 nM | 2960 nM | 224 nM | 1370 nM | 511 nM | 1040 nM | 191 | 408 nM
9 | COc1ccc(OC)c2c1[nH]c(=O)c1c3ccccc3cn21 | 1170 | 3810 nM | 1340 | 3760 nM | 1340 | 2680 nM | 1290 nM | 2890 nM | 1620 nM | 3130 nM | 1690 nM | 3080 nM | 1440 nM | 2830 nM | 189 nM | 2360 nM | 590 nM | 2110 nM | 1300 | 4070 nM
10 | CCN1CCN(C(=O)[C@@]2(C)CC[C@]3(C)CC[C@]4(C)C(=CC(=O)[C@@H]5[C@@]6(C)CC[C@H](OC7C[C@@H](O)[C@@H](O)C(C)O7)C(C)(C)[C@@H]6CC[C@]54C)[C@@H]3C2)CC1 (stereo partly specified) | 1520 | 50000 nM | 3510 | 10400 nM | 2260 | 8940 nM | 2740 nM | 9950 nM | 2260 nM | 8190 nM | 937 nM | 1850 nM | 6390 nM | 12800 nM | 1060 nM | 2570 nM | 1700 nM | 6360 nM | 9570 | 23100 nM
11 | c1ccc(-c2nnc(-c3ccccn3)s2)nc1 | > 100000 | > 100000 nM | > 100000 | > 100000 nM | > 100000 | > 100000 nM | > 100000 nM | > 100000 nM | > 100000 nM | > 100000 nM | > 100000 nM | > 100000 nM | 72900 nM | > 100000 nM | > 100000 nM | > 100000 nM | > 100000 nM | > 100000 nM | 5320 | > 100000 nM
12 | Cc1cc(C)c2c(n1)sc1c(Nc3ccc(Cl)cc3)ncnc12 | < 10 | > 100000 nM |  |  | 7400 | > 100000 nM | 139 nM | > 100000 nM | < 10 nM | > 100000 nM | < 10 nM | 88.2 nM | 17 nM | > 26400 nM | < 10 nM | 38600 nM | < 10 nM | > 100000 nM | 29.9 | > 100000 nM
13 | C=C1C(=O)OC2CC(C)C(C(CC(C)=O)OC(C)=O)=CCC12 (stereo unspecified) |  | > 35000 nM |  | 26600 nM |  | 24100 nM |  | 37200 nM |  | 33000 nM |  | 69300 nM |  | 54200 nM |  | 15500 nM |  | 10600 nM |  | 42000 nM
14 | COc1ccc(Sc2[nH]c(C(C)=O)c3ccccc23)cc1 | 14300 | 40000 nM | 8130 | 26000 nM | 11900 | 24400 nM | 6490 nM | 19700 nM | 2760 nM | 13000 nM | 14500 nM | 27600 nM | 10700 nM | 51300 nM | 1350 nM | 15200 nM | 12500 nM | 26800 nM | 8410 | 36000 nM

— PubChem BioAssay (NCI)
